{
  "source": "patent US8128959B2",
  "about": "“Polymeric pharmaceutical agent for treatment of cancer and method for production of the same” (Hiroshi Maeda, priority 2005, dated 2012)",
  "assay": "Solubility in water",
  "assay_type": "physicochemical",
  "from_the_text": "In order to solubilize it in water, the present inventors have conjugated it with amphiphilic polyethylene glycol (PEG) having an average molecular weight of 100-20,000 (preferably about 5,000) (patent document 2) to create a water-soluble derivative thereof.",
  "data": [
    {"smiles": "C=CC1=C(C)c2cc3[n-]c(cc4nc(cc5[n-]c(cc1n2)c(C)c5C=C)C(C)=C4CCC(=O)O)c(CCC(=O)O)c3C.[Zn+2]", "note": "[ZnPP, zinc-protoporphyrin]", "values": [
      {"measurement": "solubility in water", "value": "insoluble in water"}
    ]}
  ]
}
